Source: ChEMBL document CHEMBL1122063, “Renin inhibitors. Substitution of the leucyl residues of Leu-Leu-Val-Phe-OCH3 with 3-amino-2-hydroxy-5-methylhexanoic acid” (J Med Chem, 1982)

target: T1, Renin (Homo sapiens, UniProt P00797); assay: Competitive inhibition of renin from human amniotic […]
T1 sequence (P00797 whole entry): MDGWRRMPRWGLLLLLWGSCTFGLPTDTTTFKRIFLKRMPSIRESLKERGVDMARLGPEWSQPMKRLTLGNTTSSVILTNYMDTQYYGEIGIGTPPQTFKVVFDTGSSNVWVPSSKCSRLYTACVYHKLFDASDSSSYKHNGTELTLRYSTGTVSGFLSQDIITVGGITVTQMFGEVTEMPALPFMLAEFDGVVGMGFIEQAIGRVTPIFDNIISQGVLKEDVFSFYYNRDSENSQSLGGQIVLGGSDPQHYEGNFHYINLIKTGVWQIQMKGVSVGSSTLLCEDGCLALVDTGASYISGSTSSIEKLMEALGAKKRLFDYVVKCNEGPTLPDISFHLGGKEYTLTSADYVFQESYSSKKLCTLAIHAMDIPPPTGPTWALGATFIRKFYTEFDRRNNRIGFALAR

Ki [µM]	Structure (SMILES)
1010	COC(=O)[C@H](Cc1ccccc1)NC(=O)[C@@H](NC(=O)[C@H](O)[C@@H](N)CC(C)C)C(C)C
2440	COC(=O)[C@H](Cc1ccccc1)NC(=O)[C@@H](NC(=O)[C@@H](O)[C@@H](N)CC(C)C)C(C)C
960	COC(=O)[C@H](Cc1ccccc1)NC(=O)[C@@H](NC(=O)[C@H](CC(C)C)NC(=O)[C@@H](O)[C@@H](N)CC(C)C)C(C)C
520	COC(=O)[C@H](Cc1ccccc1)NC(=O)[C@@H](NC(=O)[C@@H](O)[C@@H](N)CC(C)CC(=O)[C@@H](N)CC(C)C)C(C)C (stereo partly specified)
440	COC(=O)[C@H](Cc1ccccc1)NC(=O)[C@@H](NC(=O)[C@H](O)[C@@H](N)CC(C)CC(=O)[C@@H](N)CC(C)C)C(C)C (stereo partly specified)
1520	COC(=O)[C@H](Cc1ccccc1)NC(=O)[C@@H](NC(=O)[C@@H](CC(C)C)NC(=O)[C@H](O)[C@@H](N)CC(C)C)C(C)C
